This note sets out measurements from article PMC10673615, “Quercetin-1,2,3-Triazole Hybrids as Multifunctional Anti-Alzheimer’s Agents” (Molecules, 2023).

Molecules are shown by their SMILES. Where two headings read alike, the source gives them in different places.

One test deals with T1, eeAChE (Electrophorus electricus, UniProt O42275).
T1 construct: catalogue number not given
The test is described as follows: Ellman cholinesterase inhibitory assay, eeAChE screening. The test is classed as biochemical. The settings on record: compound 100 µM; substrate 3 mM. As to the method: (§1) Firstly, the inhibitory activity of the quercetin-1,2,3-triazole hybrids I–IV was screened in vitro on eeAChE and eqBuChE at a concentration of 100 μM (these enzymes are considered as models of the human isoform). The ChE inhibitory activity of all compounds was evaluated using the method of Ellman.
(§2) The inhibitory activities of title compounds against commercially available cholinesterases (eeAChE) (Electrophorus electricus, Type V-S), eqBuChE (equine serum), were conducted using minor modifications of Ellman’s assay. Nine different concentrations ([…], 37.5, 75, 150, and 300 μM in H2O:DMSO (50:50)) of each test compound were used to determine the enzyme-inhibition activity. Briefly, 55 μL of 50 mM Tris-HCl buffer at pH 8, 25 μL of eqBuChE (0.03 U/mL), 20 μL of the test or standard compounds, and 125 μL of DTNB (0.8 mM) were incubated in 96-well plates at 37 °C for 15 min. Further, 25 μL of the substrate, BTCI (0.8 mM), was added, and the solution was incubated for additional 15 min. Finally, the absorbance was measured at 412 nm wavelength using a Microplate Spectrophotometry (TriStar® S LB 942 model instrument). The IC50 values were determined from the absorbance obtained for various concentrations of the test and the standard compounds. All determinations were performed in triplicate.
(§3) To determine the % of inhibition ([I] = 100 μM), the substrate concentration (acetylthiocholine iodide for AChE; S-butyrylthiocholine iodide for BuChE) was fixed at 3 mM.

For the next test, the target named is T2, eqBuChE (Equus caballus, UniProt P81908).
T2 construct: equine serum butyrylcholinesterase (eqBuChE); purchased Sigma-Aldrich (lyophilized powder, 10.9 U/mg); host or cells: equine serum
T2 sequence (P81908 whole entry): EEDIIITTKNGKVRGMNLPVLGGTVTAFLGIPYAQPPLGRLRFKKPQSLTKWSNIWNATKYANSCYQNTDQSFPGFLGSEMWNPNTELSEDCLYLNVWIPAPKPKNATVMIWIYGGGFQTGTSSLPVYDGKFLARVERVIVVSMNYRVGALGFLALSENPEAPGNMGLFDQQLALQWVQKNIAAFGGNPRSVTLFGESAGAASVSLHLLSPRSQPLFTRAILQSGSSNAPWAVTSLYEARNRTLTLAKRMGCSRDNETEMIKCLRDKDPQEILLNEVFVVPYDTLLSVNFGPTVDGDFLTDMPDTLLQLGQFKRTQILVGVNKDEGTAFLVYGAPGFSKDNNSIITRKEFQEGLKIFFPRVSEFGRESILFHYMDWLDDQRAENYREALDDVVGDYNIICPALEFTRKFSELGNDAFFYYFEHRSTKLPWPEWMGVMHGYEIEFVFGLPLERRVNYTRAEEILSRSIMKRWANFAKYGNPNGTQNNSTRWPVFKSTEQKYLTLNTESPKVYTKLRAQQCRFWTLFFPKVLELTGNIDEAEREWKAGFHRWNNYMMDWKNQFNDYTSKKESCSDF
The test is described as follows: Ellman cholinesterase inhibitory assay, eqBuChE (screening and IC50). The class given is biochemical. The settings on record: for inhibition at 100 µM: compound 100 µM, substrate 3 mM. How it is done: as §1, §2, §3
For orientation: DTNB colorimetry detects thiols as they appear.

A short description of test [1]: DPPH radical scavenging antioxidant assay. The conditions noted are these: 100 μg/mL. How it is done: To assess the antioxidant activity of hybrids IVa–e, IIf and quercetin, the 2,2-diphenyl-1-[…] (DPPH) radical scavenging colorimetric method was used, which is one of the most widely used methods for determining antioxidant activity. In this method, antioxidants react with DPPH (which has a strong violet color) and convert it into yellow diphenylpicrylhydrazine. Compounds were assayed in the range of concentrations from 3 to 200 μg/mL. Ascorbic acid was used as positive control. […] Another piece of evidence is the similarity between the % inhibition values of hybrids IVa,b and IVd,e and quercetin.
The colorimetric DPPH assay was carried out as described in [33]. […] In brief, 30 μL of a test compound (in MeOH) was mixed with 200 μL of DPPH (100 μM in methanol) in a 96-well plate in triplicate. After 30 min incubation at room temperature in the absence of light, the absorbances were measured at 517 nm using Microplate Spectrophotometry (TriStar® S LB 942 model instrument). The free radical scavenging activity results are expressed as a percentage of DPPH inhibition according to the following formula:
% of Inhibition = 100[(A(Blank) − A(sample))/A(blank)], where A(blank) consists of methanol (30 μL) mixed with DPPH (200 μL) absorbance, and A(sample) is the absorbance value for the added sample concentration compound mixed with DPPH. Ascorbic acid was used as a positive control.
(The DPPH test is a chemical assay of radical scavenging.)

A further test deals with MCF-7 cells. Briefly: Protective assay against hydrogen peroxide-induced oxidative stress in MCF-7 cells. The test is classed as cell-based, Human. The conditions noted are these: 100 µM H2O2, 2 h. How it is done:
Given the importance of oxidative stress-induced apoptosis of neuronal cells in AD, we present here a study to investigate the effect of quercetin-1,2,3-triazole hybrids on H2O2-induced oxidative damage in cultured MCF-7 cells, used as a human cell model. Viability was assessed with the WST-1 test in the absence and in the presence of an oxidative stressor (10^−4 M H2O2).
MCF-7 (Human breast adenocarcinoma (MERCK—# 86012803-DNA-5UG), Database Name: ECACC collection, Accession Numbers: 86012803) was the cell line elected as a cell injury model for the study of the potential protective effect of the butyrylcholinesterase inhibitors (hybrids) against hydrogen peroxide-induced oxidative stress. Cytotoxicity of the hybrids was also evaluated.
The culture medium was subsequently replaced with different final concentrations (6.25–50 μM) of the compounds to be tested. Negative controls were prepared, incubating cells in culture media.
Parallel experiments were performed for cytotoxicity assessment and for protective effect against hydrogen peroxide-induced oxidative stress evaluation. First, 10 μL of PBS was added in the designated wells; second, 10 μL of H2O2 (reaching a final concentration of 100 µM) was added. Following a 2 h incubation period at 37 °C in 5% CO2 atmosphere incubator, cellular viability was measured by adding WST-1 dehydrogenases substrate and incubating for 1 h, and the amount of formazan dye produced was evaluated by measuring the absorbance at 440 nm.

[2] abbreviates: concentration range 1.2-300 µM, BTCI 0.8 mM, read-out: IC50 values for eqBuChE.

T1 sequence (O42275 24-633): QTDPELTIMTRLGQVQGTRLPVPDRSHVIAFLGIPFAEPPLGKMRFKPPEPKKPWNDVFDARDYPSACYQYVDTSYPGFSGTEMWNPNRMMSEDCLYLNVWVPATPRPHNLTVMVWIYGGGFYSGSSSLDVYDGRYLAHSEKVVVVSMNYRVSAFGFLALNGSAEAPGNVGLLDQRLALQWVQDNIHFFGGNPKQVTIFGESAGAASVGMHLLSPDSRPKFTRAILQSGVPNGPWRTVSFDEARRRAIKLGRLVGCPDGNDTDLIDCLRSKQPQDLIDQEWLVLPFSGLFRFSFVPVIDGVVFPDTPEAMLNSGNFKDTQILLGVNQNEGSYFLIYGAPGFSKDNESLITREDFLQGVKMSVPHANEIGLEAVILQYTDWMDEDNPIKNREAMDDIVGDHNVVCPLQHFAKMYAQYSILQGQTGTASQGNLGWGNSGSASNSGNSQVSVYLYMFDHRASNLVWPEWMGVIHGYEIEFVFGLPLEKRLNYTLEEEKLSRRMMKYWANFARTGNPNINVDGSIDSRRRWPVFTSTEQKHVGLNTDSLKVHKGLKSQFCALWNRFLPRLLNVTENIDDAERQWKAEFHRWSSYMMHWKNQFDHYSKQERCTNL

For orientation: inhibition means the percentage by which the read-out fell short of the control. A high value points to strong suppression. Turning to `COc1cc(OC)c2c(=O)c(OCc3cn(Cc4cccc(Cl)c4)nn3)c(-c3ccc(OC)c(OC)c3)oc2c1` [Ib, 3-((1-(3-Chlorobenzyl)-1H-1,2,3-triazol-4-yl)methoxy)-2-(3,4-dimethoxyphenyl)-5,7-dimethoxy-4H-chromen-4-one], the figures for the inhibition at 100 µM against eeAChE and on eqBuChE were 0% and 63.3%, respectively.
In general, IC50 refers to the midpoint of a concentration-inhibition curve. In the case of `COc1cc(OC)c2c(=O)c(OCCCCn3cc(C(C)(C)O)nn3)c(-c3ccc(OC)c(OC)c3)oc2c1` [IId, 2-(3,4-Dimethoxyphenyl)-3-(4-(4-(2-hydroxypropan-2-yl)-1H-1,2,3-triazol-1-yl)butoxy)-5,7-dimethoxy-4H-chromen-4-one], the inhibition at 100 µM at eeAChE was determined as 0%; against eqBuChE, 60.6%. Besides, the IC50 on eqBuChE (setting [2]) was over 300 µM.
As for `COc1cc(OC)c2c(=O)c(OCc3cn(Cc4ccccc4)nn3)c(-c3ccc(OC)c(OC)c3)oc2c1` [Ia, 3-((1-Benzyl-1H-1,2,3-triazol-4-yl)methoxy)-2-(3,4-dimethoxyphenyl)-5,7-dimethoxy-4H-chromen-4-one], the inhibition at 100 µM was 0% on eeAChE and 54.4% at eqBuChE.
Regarding `COc1cc(OC)c2c(=O)c(OCCCCn3cc(COc4cc(C)ccc4C(C)C)nn3)c(-c3ccc(OC)c(OC)c3)oc2c1` [IIe, 2-(3,4-Dimethoxyphenyl)-3-(4-(4-((2-isopropyl-5-methylphenoxy)methyl)-1H-1,2,3-triazol-1-yl)butoxy)-5,7-dimethoxy-4H-chromen-4-one], the inhibition at 100 µM was determined as 4.13% on eeAChE and 81.7% against eqBuChE. In addition, the IC50 at eqBuChE (setting [2]) stood at 26.6 µM.
The like results for `CCCc1cn(CCCCOc2c(-c3ccc(OC)c(OC)c3)oc3cc(OC)cc(OC)c3c2=O)nn1` [IIh, 2-(3,4-Dimethoxyphenyl)-5,7-dimethoxy-3-(4-(4-propyl-1H-1,2,3-triazol-1-yl)butoxy)-4H-chromen-4-one] were, in that order, 38.6%, 7.97% and over 300 µM.
As to `O=c1c(OCCCCn2cc(C3(O)CCCC3)nn2)c(-c2ccc(OCc3ccccc3)c(OCc3ccccc3)c2)oc2cc(OCc3ccccc3)cc(OCc3ccccc3)c12` [IIIc, 5,7-Bis(benzyloxy)-2-(3,4-bis(benzyloxy)phenyl)-3-(4-(4-(1-hydroxycyclopentyl)-1H-1,2,3-triazol-1-yl)butoxy)-4H-chromen-4-one], the inhibition at 100 µM against eeAChE was found to be 17.2%; at eqBuChE, 26.9%.
The like results for `O=C1C(=O)N(Cc2cn(CCCCOc3c(-c4ccc(OCc5ccccc5)c(OCc5ccccc5)c4)oc4cc(OCc5ccccc5)cc(OCc5ccccc5)c4c3=O)nn2)c2ccccc21` [IIIf, 1-((1-(4-((5,7-Bis(benzyloxy)-2-(3,4-bis(benzyloxy)phenyl)-4-oxo-4H-chromen-3-yl)oxy)butyl)-1H-1,2,3-triazol-4-yl)methyl)indoline-2,3-dione] were, in that order, 0% and 34.5%.
For `COc1cc(OC)c2c(=O)c(OCCCCn3cc(CO)nn3)c(-c3ccc(OC)c(OC)c3)oc2c1` [IIg, 2-(3,4-Dimethoxyphenyl)-3-(4-(4-(hydroxymethyl)-1H-1,2,3-triazol-1-yl)butoxy)-5,7-dimethoxy-4H-chromen-4-one], the inhibition at 100 µM on eeAChE is 0%; against eqBuChE it was 53.8%. In addition, the half-maximal inhibitory concentration (IC50) on eqBuChE (setting [2]) is over 300 µM.
As to `Cc1ccc(C(C)C)c(OCc2cn(CCCCOc3c(-c4ccc(O)c(O)c4)oc4cc(O)cc(O)c4c3=O)nn2)c1` [IVe, 2-(3,4-Dihydroxyphenyl)-5,7-dihydroxy-3-(4-(4-((2-isopropyl-5-methylphenoxy)methyl)-1H-1,2,3-triazol-1-yl)butoxy)-4H-chromen-4-one], the figures for the inhibition at 100 µM against eeAChE and on eqBuChE were 29.1% and 63.4%, respectively. Moreover, the IC50 at eqBuChE (setting [2]) is over 150 µM. Besides, the DPPH antioxidant activity result in test [1] is on record as “potent antioxidant activity”.
Consider `COc1cc(OC)c2c(=O)c(OCCCCn3cc(C4(O)CCCC4)nn3)c(-c3ccc(OC)c(OC)c3)oc2c1` [IIc, 2-(3,4-Dimethoxyphenyl)-3-(4-(4-(1-hydroxycyclopentyl)-1H-1,2,3-triazol-1-yl)butoxy)-5,7-dimethoxy-4H-chromen-4-one], for which the inhibition at 100 µM at eeAChE was 0%; on eqBuChE it was 69.6%. Moreover, the IC50 at eqBuChE (setting [2]) was over 300 µM.
The like results for `O=c1c(OCCCCn2cc(C3(O)CCCC3)nn2)c(-c2ccc(O)c(O)c2)oc2cc(O)cc(O)c12` [IVc, 2-(3,4-Dihydroxyphenyl)-5,7-dihydroxy-3-(4-(4-(1-hydroxycyclopentyl)-1H-1,2,3-triazol-1-yl)butoxy)-4H-chromen-4-one] were, in that order, 21.6%, 69.9% and 65.7 µM.
In the case of `O=c1c(OCCCCn2cc(-c3ccccc3)nn2)c(-c2ccc(OCc3ccccc3)c(OCc3ccccc3)c2)oc2cc(OCc3ccccc3)cc(OCc3ccccc3)c12` [IIIa, 5,7-Bis(benzyloxy)-2-(3,4-bis(benzyloxy)phenyl)-3-(4-(4-phenyl-1H-1,2,3-triazol-1-yl)butoxy)-4H-chromen-4-one], the inhibition at 100 µM worked out at 40.6% against eeAChE and 46.9% at eqBuChE.
The like results for `CC(C)(O)c1cn(CCCCOc2c(-c3ccc(OCc4ccccc4)c(OCc4ccccc4)c3)oc3cc(OCc4ccccc4)cc(OCc4ccccc4)c3c2=O)nn1` [IIId, 5,7-Bis(benzyloxy)-2-(3,4-bis(benzyloxy)phenyl)-3-(4-(4-(2-hydroxypropan-2-yl)-1H-1,2,3-triazol-1-yl)butoxy)-4H-chromen-4-one] were, in that order, 15.1% and 27.3%.
In the case of `COc1cc(OC)c2c(=O)c(OCCCCn3cc(-c4ccccc4)nn3)c(-c3ccc(OC)c(OC)c3)oc2c1` [IIa, 2-(3,4-Dimethoxyphenyl)-5,7-dimethoxy-3-(4-(4-phenyl-1H-1,2,3-triazol-1-yl)butoxy)-4H-chromen-4-one], the inhibition at 100 µM stood at 7.75% against eeAChE and 55.3% on eqBuChE. Also, the IC50 at eqBuChE (setting [2]) was over 300 µM.
As for `O=c1c(O)c(-c2ccc(O)c(O)c2)oc2cc(O)cc(O)c12` [Quercetin], the “cellular antioxidant protection against H2O2” value in the test on MCF-7 cells is “low capacity in cellular protection”. Moreover, the inhibition at 100 µM against eeAChE came out at 8.18%. On eqBuChE, this compound showed an IC50 of 18.2 µM and an inhibition at 100 µM of 100%.
In the case of `COc1cc(OC)c2c(=O)c(OCCCCn3cc(C4CC4)nn3)c(-c3ccc(OC)c(OC)c3)oc2c1` [IIb, 2-(3,4-Dimethoxyphenyl)-3-(4-(4-cyclopropyl-1H-1,2,3-triazol-1-yl)butoxy)-5,7-dimethoxy-4H-chromen-4-one], the values for the inhibition at 100 µM against eeAChE and at eqBuChE were 0% and 54.4%, respectively. For the same compound, on eqBuChE (setting [2]), the IC50 is over 300 µM.
The like results for `COc1cc(OC)c2c(=O)c(OCCCCn3cc(C(C)(C)N)nn3)c(-c3ccc(OC)c(OC)c3)oc2c1` [IIi, 3-(4-(4-(2-Aminopropan-2-yl)-1H-1,2,3-triazol-1-yl)butoxy)-2-(3,4-dimethoxyphenyl)-5,7-dimethoxy-4H-chromen-4-one] were, in that order, 0%, 74.4% and 70.2 µM.
